“Also recorded” adds a separate entry of the source. Where two headings read alike, the source gives them in different places.
How the values were obtained:
[1] = target: T1, Arabidopsis thaliana HPPD (AtHPPD) (Arabidopsis thaliana, UniProt P93836); assay: AtHPPD enzyme inhibition study; type: biochemical
T1 construct: made in house
T1 sequence (P93836 1-445): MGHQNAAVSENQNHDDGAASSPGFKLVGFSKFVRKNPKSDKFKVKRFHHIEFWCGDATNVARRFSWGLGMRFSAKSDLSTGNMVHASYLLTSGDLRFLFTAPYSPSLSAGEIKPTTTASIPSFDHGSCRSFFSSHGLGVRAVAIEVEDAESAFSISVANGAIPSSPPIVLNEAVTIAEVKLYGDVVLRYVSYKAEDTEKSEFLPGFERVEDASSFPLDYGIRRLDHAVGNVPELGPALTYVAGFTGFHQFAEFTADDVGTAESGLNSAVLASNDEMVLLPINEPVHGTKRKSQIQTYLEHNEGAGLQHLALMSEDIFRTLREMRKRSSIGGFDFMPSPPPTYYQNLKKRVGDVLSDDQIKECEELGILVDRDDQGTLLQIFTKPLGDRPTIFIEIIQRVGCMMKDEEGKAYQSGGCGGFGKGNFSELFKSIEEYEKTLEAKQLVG
Description: AtHPPD was prepared and puriﬁed according to the reported methods in the literature [19–2035–37].

[2] = test system: E. crus-galli, S. faberii, D. sanguinalis, A. retroflexus, E. prostrata, A. juncea; assay: Post-emergence greenhouse herbicidal activity; type: in vivo; design: Sum of inhibition rate: scale not given here; settings: 150 g ai/ha; for Sum of inhibition rate / herbicidal activity (in words): post-emergence; for Sum of inhibition rate: sum over six weeds (AJ, AR, EP, DS, EC, SF), 18 days after treatment
rice = assay: Postemergence crop safety, rice; type: in vivo; settings: 150 g ai/ha, four-leaf stage, after 15 days
Description: (§1) The representative crops, rice, wheat, maize, cotton, soybean, and canola were selected to test the crop safety of compound II3, II4, and II5. The six crops were separately planted in ﬂowerpots (12 cm diameter) containing the composite nutrient soil and grown at room temperature. When the crops had reached the four-leaf stage, the safety experiments were conducted at the rate of 150 g ai/ha. After 15 days, the ﬁnal results of crop safety were evaluated with two duplicates per experiment (Table 3).

wheat = assay: Postemergence crop safety, wheat; type: in vivo; settings: 150 g ai/ha; for % injury wheat: postemergence, four-leaf stage, after 15 days
Description: as §1

maize = assay: Postemergence crop safety, maize; type: in vivo; settings: 150 g ai/ha; for % injury maize: postemergence, four-leaf stage, after 15 days
Description: as §1

cotton = assay: Postemergence crop safety, cotton; type: in vivo; settings: 150 g ai/ha, four-leaf stage, after 15 days
Description: as §1

soybean = assay: Postemergence crop safety, soybean; type: in vivo; settings: 150 g ai/ha, four-leaf stage, after 15 days
Description: as §1

canola = assay: Postemergence crop safety, canola; type: in vivo; settings: 150 g ai/ha, four-leaf stage, after 15 days
Description: as §1

SMILES | Ki ([1]; read-out: AtHPPD inhibition Ki) [nM] | Sum of inhibition rate [2] | other results
Cn1nc(C2CC2)c(C(=O)COc2ccccc2)c1O [I1] | 1500 ± 31 | 60 | –
Cn1nc(C(F)(F)F)c(C(=O)COc2ccccc2)c1O [I2] | 1300 ± 17 | 40 | –
Cn1nc(C2CC2)c(C(=O)COc2ccccc2Cl)c1O [I3] | 360 ± 12 | 80 | –
Cn1nc(C(F)(F)F)c(C(=O)COc2ccccc2Cl)c1O [I4] | 590 ± 43 | 40 | –
CC1(C)CC(=O)C(C(=O)COc2ccc(Cl)cc2)=C(O)C1 [I5] | 1000 ± 36 | 110 | –
Cn1nc(C(F)(F)F)c(C(=O)COc2ccc(Cl)cc2)c1O [I6] | 930 ± 32 | 180 | –
Cn1nc(C2CC2)c(C(=O)COc2ccc(Cl)cc2Cl)c1O [I7] | 360 ± 12 | 210 | –
Cn1nc(C(F)(F)F)c(C(=O)COc2ccc(Cl)cc2Cl)c1O [I8] | 220 ± 23 | 170 | –
CC1(C)CC(=O)C(C(=O)COc2c(Cl)cc(Cl)cc2Cl)=C(O)C1 [I9] | 310 ± 48 | 70 | –
Cc1nn(C)c(O)c1C(=O)COc1c(Cl)cc(Cl)cc1Cl [I10] | 240 ± 3 | 60 | –
Cn1nc(C2CC2)c(C(=O)COc2c(Cl)cc(Cl)cc2Cl)c1O [I11] | 81 ± 1 | 335 | –
Cn1nc(C(F)(F)F)c(C(=O)COc2c(Cl)cc(Cl)cc2Cl)c1O [I12] | – | 335 | herbicidal activity (in words) [2]: poorer than expected herbicidal activity
CC1(C)CC(=O)C(C(=O)COc2ccccc2[N+](=O)[O-])=C(O)C1 [I13] | 450 ± 33 | 30 | –
Cc1nn(C)c(O)c1C(=O)COc1ccccc1[N+](=O)[O-] [I14] | 210 ± 42 | 40 | –
Cn1nc(C2CC2)c(C(=O)COc2ccccc2[N+](=O)[O-])c1O [I15] | 270 ± 4 | 40 | –
Cn1nc(C(F)(F)F)c(C(=O)COc2ccccc2[N+](=O)[O-])c1O [I16] | 440 ± 13 | 10 | –
O=C1CCCC(O)=C1C(=O)COc1ccc([N+](=O)[O-])cc1 [I17] | 230 ± 4 | 80 | –
CC1(C)CC(=O)C(C(=O)COc2ccc([N+](=O)[O-])cc2)=C(O)C1 [I18] | 930 ± 6 | 70 | –
Cc1nn(C)c(O)c1C(=O)COc1ccc([N+](=O)[O-])cc1 [I19] | 630 ± 2 | 100 | –
Cn1nc(C2CC2)c(C(=O)COc2ccc([N+](=O)[O-])cc2)c1O [I20] | 500 ± 3 | 60 | –
Cn1nc(C(F)(F)F)c(C(=O)COc2ccc([N+](=O)[O-])cc2)c1O [I21] | 1500 ± 41 | 100 | –
CC1(C)CC(=O)C(C(=O)COc2ccc([N+](=O)[O-])cc2Cl)=C(O)C1 [I22] | 1020 ± 9 | 70 | –
Cc1nn(C)c(O)c1C(=O)COc1ccc([N+](=O)[O-])cc1Cl [I23] | 12 ± 9 | 80 | –

SMILES | Ki ([1]; read-out: AtHPPD inhibition Ki) [nM] | Sum of inhibition rate [2] | other results
Cn1nc(C2CC2)c(C(=O)COc2ccc([N+](=O)[O-])cc2Cl)c1O [I24] | 260 ± 12 | 110 | –
Cn1nc(C(F)(F)F)c(C(=O)COc2ccc([N+](=O)[O-])cc2Cl)c1O [I25] | 210 ± 43 | 100 | –
O=C1CCCC(O)=C1C(=O)COc1cc(Cl)ccc1Oc1ccc(Cl)cc1Cl [I26] | 1900 ± 1 | 30 | –
Cc1ccc(OCC(=O)C2=C(O)CCCC2=O)c(C)c1 [I30] | 2200 ± 34 | 40 | –
Cc1ccc(OCC(=O)C2=C(O)CC(C)(C)CC2=O)c(C)c1 [I31] | 3100 ± 340 | 20 | –
Cc1ccc(OCC(=O)c2c(C)nn(C)c2O)c(C)c1 [I32] | 2000 ± 9 | 30 | –
Cc1ccc(OCC(=O)c2c(C3CC3)nn(C)c2O)c(C)c1 [I33] | 2800 ± 45 | 30 | –
Cc1ccc(OCC(=O)c2c(C(F)(F)F)nn(C)c2O)c(C)c1 [I34] | 2800 ± 670 | 30 | –
COc1cc(C)ccc1OCC(=O)C1=C(O)CCCC1=O [I35] | – | 40 | Ki [1]: 3300 ± 140 nM
COc1cc(C)ccc1OCC(=O)C1=C(O)CC(C)(C)CC1=O [I36] | – | 20 | Ki [1]: 3400 ± 210 nM
COc1cc(C)ccc1OCC(=O)c1c(C)nn(C)c1O [I37] | – | 40 | Ki [1]: 2700 ± 530 nM
COc1cc(C)ccc1OCC(=O)c1c(C2CC2)nn(C)c1O [I38] | – | 50 | Ki [1]: 2900 ± 38 nM
O=C1CCCC(O)=C1C(=O)COc1ccccc1 [I39] | 1300 ± 56 | 40 | –
Cc1nn(C)c(O)c1C(=O)COc1ccccc1 [I40] | 1200 ± 31 | 50 | –
O=C1CCCC(O)=C1C(=O)COc1nc(Cl)c(Cl)cc1Cl [II1] | 93 ± 7 | 50 | –
CC1(C)CC(=O)C(C(=O)COc2nc(Cl)c(Cl)cc2Cl)=C(O)C1 [II2] | 97 ± 10 | 20 | –
Cc1nn(C)c(O)c1C(=O)COc1nc(Cl)c(Cl)cc1Cl [II3] | 21 ± 4 | 415 | herbicidal activity (in words) [2]: broad-spectrum herbicidal activities; also recorded: excellent herbicidal activities; % injury rice (rice): 40%; crop tolerance of wheat (in words) (wheat): high tolerance; % injury wheat (wheat): 10%; crop tolerance / safety of maize (in words) (maize): high tolerance; % injury maize (maize): 10%; % injury cotton (cotton): 60%; % injury soybean (soybean): 50%; % injury canola (canola): 90%
Cn1nc(C2CC2)c(C(=O)COc2nc(Cl)c(Cl)cc2Cl)c1O [II4] | – | 520 | Ki [1]: 23 ± 6 nM; herbicidal activity (in words) [2]: broad-spectrum herbicidal activities; also recorded: slightly higher herbicidal activity than mesotrione; also recorded: excellent herbicidal activities; herbicidal activity for pre-emergence treatment (in words) ([2]; pre-emergence treatment as printed in the abstract): slightly better than that of mesotrione; % injury rice (rice): 30%; % injury wheat (wheat): 50%; crop tolerance / safety of maize (in words) (maize): safe for weed control in maize fields; also recorded: tolerance; also recorded: safe for use on maize; % injury maize (maize): 10%; % injury cotton (cotton): 60%; % injury soybean (soybean): 30%; % injury canola (canola): 100%
Cn1nc(C(F)(F)F)c(C(=O)COc2nc(Cl)c(Cl)cc2Cl)c1O [II5] | – | 415 | Ki [1]: 120 ± 3 nM; herbicidal activity (in words) [2]: excellent herbicidal activities; % injury rice (rice): 50%; % injury wheat (wheat): 50%; % injury maize (maize): 30%; % injury cotton (cotton): 90%; % injury soybean (soybean): 70%; % injury canola (canola): 100%
Cn1nc(C(F)(F)F)c(C(=O)COc2ccc3ccccc3c2Br)c1O [III4] | 2000 ± 12 | 90 | –
O=C1CCCC(O)=C1C(=O)COc1cccnc1[N+](=O)[O-] [III5] | 230 ± 11 | 50 | –
Cn1nc(C2CC2)c(C(=O)COc2cccnc2[N+](=O)[O-])c1O [III6] | 210 ± 42 | 60 | –
CS(=O)(=O)c1ccc(C(=O)C2C(=O)CCCC2=O)c([N+](=O)[O-])c1 [mesotrione, reference compound] | 13 ± 1 | 510 | % injury rice (rice): 50%; % injury wheat (wheat): 40%; % injury maize (maize): 10%; % injury cotton (cotton): 80%; % injury soybean (soybean): 50%; % injury canola (canola): 100%

From PMC7059547, “Synthesis and herbicidal activities of aryloxyacetic acid derivatives as HPPD inhibitors” (Beilstein Journal of Organic Chemistry, 2020)
